Results on 29 compounds are retold here after patent publication US10093653B2, “Vitamin D receptor-coregulator inhibitors” (UWM Research Foundation, Inc., priority 2011, dated 2018).

In brackets after ≈: the same amount, converted by molar mass.

For data set [1] the following is noted: PAMPA. In general terms: In PAMPA a lipid-coated filter parts donor from acceptor wells.
Data set [2] has as its system HEK293T cells. The data set is described as follows: Toxicity by Cell-Titer Glo after the FRET assay. The data set is classed as cell-based. The conditions noted are these: for Toxicity (%): Conc. 62.5 μM.
For data set [3] the following is noted: 12 h, pH 7.4.
The test system of data set [4] is TRPV6 in DU145 cells. As to the kind of experiment: TRPV6 expression, semi-quantitative RT-PCR. The data set is classed as cell-based. The settings on record: 20 nM.
The subject of data set [5] is CYP24A1. The data set is described as follows: CYP24A1 expression levels. The format is cell-based. The settings on record: compound in presence and absence of 1,25-(OH)2D3.
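Wherever Permeability Log(Pe) is given: passive permeability measured by parallel artificial membrane permeability assay, each experiment run in triplicate.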
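Wherever Permeability values (log Pe) of standards is given: passive permeability measured by parallel artificial membrane permeability assay, each experiment run in triplicate.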

In the case of `Cc1[nH]c2ccccc2c1C(Nc1ccccn1)c1cccc(Br)c1` (stereo not shown) [Compound 14], in data set [1], the “Permeability Log(Pe)” value was −6.11 cm/s. Besides, the “Toxicity (%)” value in data set [2] was 100%.
With `Cc1[nH]c2ccccc2c1C(Nc1ccc(N(C)C)cc1)c1ccccc1Cl` (stereo not shown) [Compound 31e, N^1-((2-chlorophenyl)(2-methyl-1H-indol-3-yl)methyl)-N^4,N^4-dimethylbenzene-1,4-diamine], in data set [1], the “Permeability Log(Pe)” value is on record as −7.28 cm/s. In data set [3], the Solubility turned out to be 21.0 µM (≈ 8.19 µg/mL).
Turning to `C=C1/C(=C\C=C2/CCC[C@]3(C)[C@@H]([C@H](C)CCCC(C)(C)O)CC[C@@H]23)C[C@@H](O)C[C@@H]1O` [1,25-(OH)2D3, 1,25-dihydroxyvitamin D3, reference compound], the “TRPV6 expression with VDR ligand” value in data set [4] is recorded as “up-regulated”.
In the case of `Cc1[nH]c2ccccc2c1C(Nc1ccccc1)c1ccc(Cl)cc1` (stereo not shown) [Compound 30b, N-((4-chlorophenyl)(2-methyl-1H-indol-3-yl)methyl)aniline], in data set [1], the “Permeability Log(Pe)” value is −6.03 cm/s. The compound also returned a Solubility in data set [3] of 93.9 µM (≈ 32.6 µg/mL).
Take `Cc1[nH]c2ccccc2c1C(C)Nc1ccccc1` (stereo not shown) [Compound 30g, N-(1-(2-methyl-1H-indol-3-yl)ethyl)aniline]: in data set [1], the “Permeability Log(Pe)” value is −6.40 cm/s. In addition, the Solubility in data set [3] was 189.0 µM (≈ 47.3 µg/mL).
In the case of `COc1ccc(C(Nc2ccccc2)c2c(C)[nH]c3ccccc23)cc1` (stereo not shown) [Compound 30c, N-((4-methoxyphenyl)(2-methyl-1H-indol-3-yl)methyl)aniline], the “Permeability Log(Pe)” value in data set [1] is given as −6.10 cm/s. Also, the Solubility in data set [3] amounted to 237.5 µM (≈ 81.3 µg/mL).
Take `Cc1[nH]c2ccccc2c1C(Nc1ccccn1)c1cccc(F)c1` (stereo not shown) [Compound 19]: the “Permeability Log(Pe)” value in data set [1] is reported as −5.99 cm/s.
For `COc1ccc(C(Nc2ccccn2)c2c(C)[nH]c3ccccc23)cc1` (stereo not shown) [Compound 11], the “Permeability Log(Pe)” value in data set [1] is given as −6.25 cm/s. For the same compound, in data set [2], the “Toxicity (%)” value was 100%.
With `COc1ccccc1NC(c1ccccc1Cl)c1c(C)[nH]c2ccccc12` (stereo not shown) [Compound 31h, N-((2-chlorophenyl)(2-methyl-1H-indol-3-yl)methyl)-2-methoxyaniline], the “Permeability Log(Pe)” value in data set [1] was −6.22 cm/s. This compound displayed a Solubility in data set [3] of 59.7 µM (≈ 22.5 µg/mL).
`Cc1[nH]c2ccccc2c1C(Nc1ccc([N+](=O)[O-])cc1)c1ccccc1Cl` (stereo not shown) [Compound 31f, N-((2-chlorophenyl)(2-methyl-1H-indol-3-yl)methyl)-4-nitroaniline]: the “Permeability Log(Pe)” value in data set [1] is on record as −7.60 cm/s. This compound also came in with a Solubility in data set [3] of 4.9 µM (≈ 1.92 µg/mL).
As for `Cc1[nH]c2ccccc2c1C(Nc1ccccn1)c1ccc(F)cc1` (stereo not shown) [Compound 16], the “Permeability Log(Pe)” value in data set [1] is recorded as −6.05 cm/s. Moreover, the “Toxicity (%)” value in data set [2] is 100%.
Take `CNC(=C[N+](=O)[O-])NCCSCc1ccc(CN(C)C)o1` [Ranitidine, reference compound]: the “Permeability values (log Pe) of standards” value in data set [1] was −8.02±0.074 cm/s.
As to `Cc1[nH]c2ccccc2c1C(Nc1ccccc1)c1ccccc1Cl` (stereo not shown) [Compound 31a, N-((2-chlorophenyl)(2-methyl-1H-indol-3-yl)methyl)aniline], the “Permeability Log(Pe)” value in data set [1] is on record as −6.41 cm/s. Moreover, the Solubility in data set [3] was 31.6 µM (≈ 11 µg/mL).
Take `Cc1ccc(C(Nc2ccccn2)c2c(C)[nH]c3ccccc23)cc1` (stereo not shown) [Compound 12]: in data set [1], the “Permeability Log(Pe)” value is on record as −6.10 cm/s. In addition, the “Toxicity (%)” value in data set [2] is given as 90%.
Consider `c1ccc(NC(c2ccccc2)c2c[nH]c3ccccc23)cc1` (stereo not shown) [Compound 1, N-((1H-indol-3-yl)(phenyl)methyl)aniline], for which, in data set [5], the “Modulation of CYP24A1 expression” value is on record as “no modulation of CYP24A1”.
On to `Cc1[nH]c2ccccc2c1C(Nc1ccccn1)c1cccc(Cl)c1` (stereo not shown) [Compound 18], for which the “Permeability Log(Pe)” value in data set [1] is given as −6.01 cm/s. The “Toxicity (%)” value in data set [2] was 100%.
For `NC(=O)N1c2ccccc2C=Cc2ccccc21` [carbamazepine, reference compound], the “Permeability values (log Pe) of standards” value in data set [1] is listed as −6.81±0.0011 cm/s.
On to `Cc1[nH]c2ccccc2c1C(Nc1ccccc1)c1ccc2ccccc2c1` (stereo not shown) [Compound 30h, N-((2-methyl-1H-indol-3-yl)(naphthalen-2-yl)methyl)aniline], for which, in data set [1], the “Permeability Log(Pe)” value was −6.30 cm/s. The compound further registered a Solubility in data set [3] of 67.3 µM (≈ 24.4 µg/mL).
Take `Cc1[nH]c2ccccc2c1C(Nc1ccccc1)c1ccccc1` (stereo not shown) [Compound 30a, N-((2-methyl-1H-indol-3-yl)(phenyl)methyl)aniline]: the “Permeability Log(Pe)” value in data set [1] is reported as −6.00 cm/s. The compound further registered a Solubility in data set [3] of 252.9 µM (≈ 79 µg/mL).
In the case of `Cc1[nH]c2ccccc2c1C(Nc1ccccn1)c1ccc(C(C)C)cc1` (stereo not shown) [Compound 17], the “Permeability Log(Pe)” value in data set [1] is recorded as −6.12 cm/s. For the same compound, in data set [2] (footnote b, highly active compounds), the “Toxicity LD50 (given instead of percentages)” value was 18.0^b μM.
As to `Cn1cc(C(Nc2ccccc2)c2ccccc2Cl)c2ccccc21` (stereo not shown) [Compound 32a, N-((2-chlorophenyl)(1-methyl-1H-indol-3-yl)methyl)aniline], the “Permeability Log(Pe)” value in data set [1] is −6.58 cm/s. In addition, the Solubility in data set [3] was 15.3 µM (≈ 5.31 µg/mL).
On to `Cc1[nH]c2ccccc2c1C(Sc1ccccc1)c1ccccc1Cl` (stereo not shown) [Compound 32c, 3-((2-chlorophenyl)(phenylthio)methyl)-2-methyl-1H-indole], for which the “Permeability Log(Pe)” value in data set [1] is −6.89 cm/s. Also, the Solubility in data set [3] is 11.8 µM (≈ 4.29 µg/mL).
`Cc1[nH]c2ccccc2c1C(Nc1ccccc1)c1ccc(N(C)C)cc1` (stereo not shown) [Compound 30e, N,N-dimethyl-4-((2-methyl-1H-indol-3-yl)(phenylamino)methyl)aniline]: the “Permeability Log(Pe)” value in data set [1] is −6.88 cm/s. In data set [3], this compound gave a Solubility of 157.7 µM (≈ 56.1 µg/mL).
With `Cc1[nH]c2ccccc2c1C(Nc1ccccc1)c1ccc([N+](=O)[O-])cc1` (stereo not shown) [Compound 30f, N-((2-methyl-1H-indol-3-yl)(4-nitrophenyl)methyl)aniline], the “Permeability Log(Pe)” value in data set [1] is given as −6.08 cm/s. Moreover, the Solubility in data set [3] was determined as 117.6 µM (≈ 42 µg/mL).
The like results for `COc1ccc(NC(c2ccccc2Cl)c2c(C)[nH]c3ccccc23)cc1` (stereo not shown) [Compound 31c, N-((2-chlorophenyl)(2-methyl-1H-indol-3-yl)methyl)-4-methoxyaniline] were, in that order, −6.30 cm/s and 84.2 µM (≈ 31.7 µg/mL).
The like results for `Cc1ccc(NC(c2ccccc2Cl)c2c(C)[nH]c3ccccc23)cc1` (stereo not shown) [Compound 31d, N-((2-chlorophenyl)(2-methyl-1H-indol-3-yl)methyl)-4-methylaniline] were, in that order, −6.45 cm/s and 35.9 µM (≈ 13 µg/mL).
As to `Cc1ccc(C(Nc2ccccc2)c2c(C)[nH]c3ccccc23)cc1` (stereo not shown) [Compound 30d, N-((2-methyl-1H-indol-3-yl)(p-tolyl)methyl)aniline], the “Permeability Log(Pe)” value in data set [1] is recorded as −6.34 cm/s. Further, the Solubility in data set [3] was 175.1 µM (≈ 57.2 µg/mL).
Regarding `COc1cccc(C(Nc2ccccn2)c2c(C)[nH]c3ccccc23)c1` (stereo not shown) [Compound 13], the “Permeability Log(Pe)” value in data set [1] was −6.12 cm/s. The “Toxicity (%)” value in data set [2] came out at 60%.
For the compound `Cc1[nH]c2ccccc2c1C(Nc1ccccn1)c1ccc(Br)cc1` (stereo not shown) [Compound 15], the “Permeability Log(Pe)” value in data set [1] is given as −6.01 cm/s.

Usually Solubility stands for the concentration that dissolves in the medium under given conditions. A lower Solubility goes with a poorly soluble substance.
